Laboratory results: BindingDB's records for doi:10.1021/acsmedchemlett.5b00147 (Therachem Research Medilab (India), 2015)

Test: Antagonist activity against PAR2 in human HT29 cells assessed as inhibition of UTP-induced Ca2+ responses pre-incubated for 30 mins before UTP stimulation by FLIPR assay

Question: With `CCOC(=O)[C@H]1CCCN(C(=O)c2cn3nc(-c4ccc(F)cc4)cc(C(F)(F)F)c3n2)[C@@H]1C` as the molecule, how does the IC50 read?
Answer: 4.4 µM
